Laboratory results: PubChem BioAssay (NCI)
“And” between values parts separate entries of the source, which are not always exact repeats. Equal entries are not always repeated.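 Five concentrations, 48 hours, 96-well plates. GI50: concentration for 50% inhibition of growth. TGI marks complete inhibition of growth.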 *1 amine or outer side, *2 acyl side, *3 side chain or, on linkers, in order; H or OH if unused. Where a SMILES comes first, the peptide text is derived from it. Bridges are numbered along the chain shown (N, C = ends). [ ]: non-standard residue; d: D form. The star is where a group is joined. Phe(3-Me) = Cc1cccc(C[C@H](N)C(=O)O)c1; NH(4-Cl-2-F-phenyl) = Fc1cc(Cl)ccc1N*; Pro(4R-Me) = C[C@H]1CN[C@H](C(=O)O)C1; Propanoyl(3-NMe2) = CN(C)CCC(=O)*; Hyp = O=C(O)[C@@H]1C[C@@H](O)CN1; aThr = C[C@H](O)[C@H](N)C(=O)O; Pip = O=C(O)[C@@H]1CCCCN1; CO = O=C([*:1])[*:2]

Test system: MDA-MB-468 breast
Experiment: DTP human tumour cell line panel, 48 h

Compound	GI50	TGI
CC(=O)Nc1sc2c(c1-c1nc3ccccc3s1)CNC2	1.88 µM	7.24 µM
C=C1N(C)c2ccc(Cl)cc2C1(C)C	2.64 µM	15.6 µM
COc1ccc(-c2nocc2-c2cc(OC)c(OC)c(OC)c2)cc1	0.105 µM	18.6 µM
Cc1ccc(NC(=O)c2nc(S(C)=O)oc2-c2ccc(F)cc2)cc1Nc1nccc(-c2cccnc2)n1 (configuration not stated)	2.14 µM	4.65 µM
C/C(=N\NC(=O)c1ccncc1)c1ccc(O)cc1O	4.16 µM	50.8 µM
COc1cc(OC)cc(-c2cncn2-c2ccc(-c3nc4cc(OC)c(OC)c(OC)c4s3)cc2)c1	10.7 µM	> 100 µM
N=c1ccn2c(n1)O[C@@H]1[C@@H](O)[C@H](CO)O[C@@H]12	48.4 µM	> 100 µM
COc1ccc(Cn2c(Br)c3c(c2-c2cc(OC)c(OC)c(OC)c2)CCc2sc(NC(C)=O)nc2-3)cc1	4.86 µM	46.3 µM
CC[C@]12CCCN3CC[C@]4(C(=C(C(=O)OC)C1)Nc1ccccc14)[C@@H]32	11.7 µM	28 µM
Cc1ccccc1/C=C1\CN(C(=O)OC(C)(C)C)C/C(=C\c2ccccc2C)C1=O	1.83 µM	4.45 µM
CSc1nc2c(c(=O)[nH]1)C(c1ccc(Cl)cc1)C1=C(N2)/C(=C/c2ccc(Cl)cc2)CNC1 (configuration not stated)	1.8 µM	4.02 µM
CCCN1CCN(c2ccc3nc(-c4ccc5nc(-c6ccc(OCC)c(OCC)c6)[nH]c5c4)[nH]c3c2)CC1	0.369 µM	1.3 µM
O=C(Nc1ccc(Br)cc1F)c1cc(Br)ccc1O	0.873 µM	5.42 µM
COc1cc2c3c(n(CCCN4CCCC4)c(=O)c2cc1OC)-c1cc2c(cc1C3=O)OCO2	1.57 µM	3.17 µM
CC1Cc2cc(O)ccc2C2[C@@H]1C1CC[C@H](O)[C@@]1(C)C[C@@H]2O[N+](=O)[O-] (some centres not stated)	27.6 µM	> 100 µM
O=C1c2cccnc2C(=O)c2c1c(C(=O)OCCN1CCOCC1)c1ccccn21	1.51 µM	6.74 µM
CCc1ccc(Nc2cc(C)nc3nc(C)nn23)cc1	28.6 µM	> 100 µM
O=C(CN1CCN(c2ccc(Cl)cc2)CC1)N1CCN(c2nnc(-c3ccccc3)c(-c3ccccc3)n2)CC1	1.83 µM	53.3 µM
CC/C=C\C/C=C\C[C@H]1C/C=C2/C(=O)C=C[C@H]2C/C=C\CCC(=O)O1	1.86 µM	5 µM
COc1cc2c3c(c4c5ccccc5[nH]c4c2c(OC)c1OC)C(=O)N(CCN1CCCCC1)C3=O	1.6 µM	19.2 µM
CC(C)Oc1ccc(C(=O)N[C@H](CNC(=O)CN(C)C)Cc2ccc(-c3cn4cccc([C@H](C)O)c4n3)cc2)cc1Cl	0.0389 µM	17.5 µM

Compound	GI50	TGI
NC[C@@](O)(c1ccc(Cl)cc1)c1ccc(-c2cn[nH]c2)cc1	1.08 µM and 0.54 µM	3.79 µM and 2.01 µM
O=S(=O)(NCCCNc1cc(-c2cn(-c3ccccc3)nc2-c2cccc(O)c2)ccn1)c1ccc(Cl)cc1	1.16 µM	4.56 µM
CCN1CCN(C(=O)[C@]23CCC(C)(C)C[C@@H]2C2=CC[C@@H]4[C@@]5(C)C/C(=C/c6cccnc6)C(=O)C(C)(C)[C@@H]5CC[C@@]4(C)[C@]2(C)CC3)CC1	1.28 µM	3.94 µM
CC(C)[C@@H]1CC[C@@H]2[C@@H]1[C@H](OC(=O)/C=C/c1ccccc1)[C@]1(C(C)C)C[C@@H](OC(=O)CO)[C@@]2(C)O1	6.07 µM	12.6 µM
C[C@@]1(N2C(=O)OC[C@@H]2c2ccccc2)C(=O)N([C@H](CC(=O)N2CCC(N3CCCCC3)CC2)C(=O)NCc2cccc(C(F)(F)F)c2)[C@@H]1/C=C/c1ccccc1	1.9 µM	3.77 µM
COc1ccc(-c2nc(C(Cl)Cl)nc3cc(-c4ccccc4)nn23)cc1	1.09 µM	3.1 µM
Nc1c(C(=O)Nc2ccccc2)sc2nc3c(cc12)CCCC3	0.317 µM	47.9 µM
CN1CCCN(C(c2ccccc2)c2ccc(Br)cc2)CC1 (configuration not stated)	1.93 µM	6.53 µM
CC[C@@]1(O)C(=O)OCc2c1cc1n(c2=O)Cc2c-1nc1ccccc1c2/C=N/OC(C)(C)C	< 0.01 µM	0.0592 µM
COc1ccc(Nc2ncccc2C(=O)NCc2cn(Cc3cccc(Oc4ccccc4)c3)nn2)cc1	2.32 µM	6.95 µM
O=C(/C=C/c1cccnc1)c1ccccc1O	15.1 µM	37.3 µM
CCOC(=O)Nc1cccc(-n2cnc3cc(-c4ccc(O)cc4)ccc32)c1	0.243 µM	10.6 µM
Cc1cccc(C[C@H](NC(=O)Nc2ccc(Cl)cc2F)C(=O)N[C@@H]2C(=O)N3C[C@H](OC(=O)CCN(C)C)C[C@H]3C(=O)N3CCCC[C@H]3C(=O)N[C@@H](C)C(=O)N3C[C@H](C)C[C@H]3C(=O)O[C@H]2C)c1 ({NH(4-Cl-2-F-phenyl)-CO}-[Phe(3-Me)][aThr][Hyp](Propanoyl(3-NMe2))[Pip]A[Pro(4R-Me)]; ester 2-C)	0.255 µM	0.894 µM
O=C(O)c1cc(Sc2ccc([N+](=O)[O-])c(C(=O)O)c2)ccc1[N+](=O)[O-]	> 100 µM	> 100 µM
COc1cc(NC(N)=NCCC(C)(C)c2ccc(C(F)(F)F)cc2)ncc1C#N	1.24 µM	2.8 µM
O=C(CCl)Nc1ccc2c(c1)C(=O)c1ccc(NC(=O)CCl)cc1C2=O	0.425 µM	1.55 µM
COc1ccc(/C=C/C(=O)c2ccc(Nc3ccnc4cc(Cl)ccc34)cc2)cc1	> 100 µM	> 100 µM
Nc1nc2c(c3cnccc13)C(c1cccc(Cl)c1)Cc1cnccc1-2 (configuration not stated)	0.21 µM	0.576 µM
C[C@]12CC[C@H]3[C@@H](C[C@@H]4N=C(c5ccc(O)cc5)S[C@@]45C[C@H](O)CC[C@]35C)[C@@H]1CC[C@@H]2O	5.13 µM	41.6 µM
COc1cc(C2C(C#N)=C(N)Oc3cc(O)ccc32)cc(OC)c1OC (configuration not stated)	0.28 µM	1.14 µM
